Measured values: PMC12224939, “Trypstatin as a Novel TMPRSS2 Inhibitor with Broad‐Spectrum Efficacy against Corona and Influenza Viruses” (Advanced Science, 2025)
Structures can show the parent of a compound that is named as a salt. Where two headings read alike, the source gives them in different places. Bridge positions count the residues as written; N and C are the ends. Ends that are not written are not given here.

Legend:
[1] = test system: Influenza A/Virginia/ATCC3/2009 (Virg09; A/H1N1); experiment: Influenza virus inhibition assay in Calu-3 cells, IAV H1N1; type: cell-based, influenza A virus
[2] = test system: Influenza B/Ned/537/05 (Ned05; B/Yamagata lineage); experiment: Influenza virus inhibition assay in Calu-3 cells, IBV; type: cell-based, influenza B virus
[3] = cited from earlier work
[4] = test system: Influenza A/Victoria/361/11 (Vict11; A/H3N2); experiment: Influenza virus inhibition assay in Calu-3 cells, IAV H3N2; type: cell-based, influenza A virus
Kallikrein 5 = target: T1, Kallikrein 5 (Homo sapiens, UniProt Q9Y337); experiment: Recombinant kallikrein 5 activity assay; type: biochemical; settings: recombinant enzyme
T1 construct: purchased R&D 1108
Description: Kallikrein 5 activity was measured by mixing 25 µL of compound with 25 µL of 2 µg mL^−1 of recombinant enzyme (R&D #1108) in assay buffer (100 mM NaH2PO4, pH 8) for 15 min at 37 °C before the addition of 50 µL of BOC‐Val‐Pro‐Arg‐AMC substrate (R&D #ES011). The mixture was incubated for 5 min at 37 °C before fluorescence intensity was measured at an excitation wavelength of 380 nm and emission wavelength of 460 nm in a SynergyTM H1 microplate reader (BioTek) with Gen5 3.04 software.

TMPRSS14 (Matriptase) = target: T2, TMPRSS14 (Matriptase) (Homo sapiens, UniProt Q9Y5Y6); experiment: Recombinant TMPRSS14 activity assay; type: biochemical; settings: recombinant enzyme
T2 construct: purchased 3946
Description: In the next step, 50 µL of 20 µM BOC‐Gln‐Ala‐Arg‐AMC protease substrate (Bachem #4017019) in the case of TMPRSS2 and TMPRSS14 or 50 µL of 150 µM BOC‐Gln‐Arg‐Arg‐AMC (PeptaNova) in the case of TMPRSS1 was added and incubated for 2 h for TMPRSS2, or 5 mins in the case of TMPRSS1/14 at 37 °C. Fluorescence intensity was measured after 2 h at an excitation wavelength of 380 nm and emission wavelength of 460 nm in a SynergyTM H1 microplate reader (BioTek) with Gen5 3.04 software. […] Assays were performed in a total volume of 100 µL in quadruplicate wells of a 96 Nunc well plate (Thermo Scientific #10174221) with a final TMPRSS2 concentration of 20 nM. Initial velocities were measured in 50 s intervals for 15 min with excitation of 360 nm and emission of 460 nm in a SynergyTM H1 microplate reader. K m and V max were calculated from Michaelis–Menten plots using GraphPadPrism. The inhibitory constant K i was calculated from the IC50 values according to the Cheng–Prusoff equation (K i = IC50/(1 + [S]/K m)) for competitive reversible inhibitors.^[ [91] ^]

SARS-CoV-2 Omicron BA.1 = experiment: microbe, parasite or virus in culture; type: cell-based
TMPRSS11D = target: T3, TMPRSS11D (Homo sapiens, UniProt O60235); experiment: Cellular TMPRSS11D activity assay in transfected HEK293T cells; type: cell-based
T3 construct: encoding the respective transmembrane serine protease per well; host or cells: HEK293T
Description: (§1) Twenty thousand HEK293T cells were seeded in a 96‐well flat bottom plate. The next day, cells were transfected with 100 ng of an expression plasmid (Backbone: Twist Bioscience, EF1alpha mammalian expression vector) encoding the respective transmembrane serine protease per well using LT1 transfection reagent (TMPRSS2 human NCBI RefSeq: NP_005647.3; TMPRSS2 Syrian gold hamster NCBI RefSeq: XP_012971683.1; TMPRSS11D NCBI RefSeq: NP_004253.1; TMPRSS13 NCBI RefSeq: NP_001070731.1). In short, plasmid DNA was mixed in a 1:3 ratio with LT1 in a serum‐free medium and incubated for 20 min before the mixture was applied dropwise onto the cells. Sixteen hours post‐transfection, the medium was replaced by a serum‐free medium, and cells were treated with serial dilution of compounds in PBS. After 15 min of incubation at 37 °C, 100 µM of respective protease‐specific substrate (TMPRSS2: Boc‐QAR‐AMC, Bachem # 4017019; TMPRSS11D: Boc‐FSR‐AMC, Bachem # 4012340; TMPRSS13: Pyr‐RTKR‐AMC, Bachem #4018149) was added and incubated for 2 h at 37 °C. Fluorescence intensity was recorded at an excitation wavelength of 380 nm and emission wavelength of 460 nm in a Synergy H1 microplate reader (BioTek) with Gen 5 3.04 software. Values were background corrected for non‐transfected HEK293T‐cells.

hCoV-NL63 = experiment: HCoV-NL63 inhibition assay in Caco-2 cells; type: cell-based
Description: Caco‐2 cells (25 000) were seeded in a 96‐well flat‐bottom plate before the following day, cells were treated for 30 min with serial dilutions of compounds in PBS and the cells were infected with a MOI of 0.018 and incubated at 33 °C. At 72 hpi, cells were detached and fixed in a final concentration of 4% PFA for 30 min. Subsequently, cells were washed with PBS and stained for flow cytometry analysis with anti‐NL63‐nucleocapsid antibody (SinoBiological #40641‐T62) diluted 1:5000 in Buffer B (Fix and Perm, MuBio Nordic) for 40 min at 4 °C. Cells were washed twice with FACS buffer (1% FCS in PBS) and incubated with Alexa Flour 647 labeled anti‐rabbit antibody (Cell Signaling #4414) diluted 1:5000 in FACS buffer for 30 min at 4 °C before the cells were washed again twice with FACS buffer. Analysis was performed using a CytoflexLX flow cytometer (Beckmann Coulter) with CytExpert 2.3 software.

TMPRSS13 = target: T4, TMPRSS13 (Homo sapiens, UniProt Q9BYE2); experiment: Cellular TMPRSS13 activity assay in transfected HEK293T cells; type: cell-based
T4 construct: encoding the respective transmembrane serine protease per well; host or cells: HEK293T
Description: as §1

[5] = test system: lentiviral pseudoparticles harboring VSV-G glycoprotein; type: cell-based
[6] = Table S1, read-out: anti-viral IC50 (±SEM), IAV H1N1
[7] = Table S1, read-out: anti-viral IC50 (±SEM), IBV
[8] = Human coronavirus NL63, Caco-2, Table S1, read-out: anti-viral IC50 (±SEM), hCoV-NL63

T2 sequence (Q9Y5Y6 whole entry): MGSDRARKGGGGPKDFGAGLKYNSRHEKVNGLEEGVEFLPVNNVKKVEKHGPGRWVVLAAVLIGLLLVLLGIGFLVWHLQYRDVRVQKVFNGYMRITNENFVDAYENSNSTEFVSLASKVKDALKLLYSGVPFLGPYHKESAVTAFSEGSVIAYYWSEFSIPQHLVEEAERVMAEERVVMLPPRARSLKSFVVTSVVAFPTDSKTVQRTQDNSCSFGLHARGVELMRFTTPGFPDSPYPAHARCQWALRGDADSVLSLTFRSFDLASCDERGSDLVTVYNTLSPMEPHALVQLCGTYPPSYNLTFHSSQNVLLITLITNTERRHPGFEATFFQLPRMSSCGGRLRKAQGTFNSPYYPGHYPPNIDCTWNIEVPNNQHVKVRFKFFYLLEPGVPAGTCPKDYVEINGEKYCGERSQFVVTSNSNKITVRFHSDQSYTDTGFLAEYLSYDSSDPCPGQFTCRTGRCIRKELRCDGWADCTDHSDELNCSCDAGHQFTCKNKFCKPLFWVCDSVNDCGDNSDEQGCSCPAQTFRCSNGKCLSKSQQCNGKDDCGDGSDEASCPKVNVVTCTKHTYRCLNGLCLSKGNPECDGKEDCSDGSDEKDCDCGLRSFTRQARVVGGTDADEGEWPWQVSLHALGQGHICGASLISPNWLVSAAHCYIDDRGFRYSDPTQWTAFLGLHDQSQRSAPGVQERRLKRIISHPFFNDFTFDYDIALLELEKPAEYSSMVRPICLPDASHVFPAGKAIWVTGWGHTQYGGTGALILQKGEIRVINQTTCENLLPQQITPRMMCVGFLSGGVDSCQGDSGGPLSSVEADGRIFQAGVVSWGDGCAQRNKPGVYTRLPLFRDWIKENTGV
T3 sequence (O60235 whole entry): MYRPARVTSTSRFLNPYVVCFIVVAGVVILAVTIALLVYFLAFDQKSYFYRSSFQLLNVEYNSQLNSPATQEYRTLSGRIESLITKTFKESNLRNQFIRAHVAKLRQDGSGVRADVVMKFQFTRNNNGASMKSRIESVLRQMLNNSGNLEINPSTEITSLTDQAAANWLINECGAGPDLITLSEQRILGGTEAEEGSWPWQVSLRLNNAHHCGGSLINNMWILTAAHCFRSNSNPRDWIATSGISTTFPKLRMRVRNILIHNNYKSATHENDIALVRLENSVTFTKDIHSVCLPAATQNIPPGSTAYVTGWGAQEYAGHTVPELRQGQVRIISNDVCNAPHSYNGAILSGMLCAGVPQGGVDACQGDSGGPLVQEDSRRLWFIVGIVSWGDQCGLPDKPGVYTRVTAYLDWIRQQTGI
T1 sequence (Q9Y337 23-293): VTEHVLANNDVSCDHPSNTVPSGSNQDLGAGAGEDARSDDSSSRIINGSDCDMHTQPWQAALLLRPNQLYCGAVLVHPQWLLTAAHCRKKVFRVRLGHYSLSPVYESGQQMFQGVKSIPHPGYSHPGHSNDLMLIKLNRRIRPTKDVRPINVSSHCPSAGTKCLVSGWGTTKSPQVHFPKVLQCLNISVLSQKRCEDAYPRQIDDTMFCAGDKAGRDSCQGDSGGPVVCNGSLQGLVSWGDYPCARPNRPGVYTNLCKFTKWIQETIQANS
T4 sequence (Q9BYE2 other isoform, or with tags, fused parts or gaps): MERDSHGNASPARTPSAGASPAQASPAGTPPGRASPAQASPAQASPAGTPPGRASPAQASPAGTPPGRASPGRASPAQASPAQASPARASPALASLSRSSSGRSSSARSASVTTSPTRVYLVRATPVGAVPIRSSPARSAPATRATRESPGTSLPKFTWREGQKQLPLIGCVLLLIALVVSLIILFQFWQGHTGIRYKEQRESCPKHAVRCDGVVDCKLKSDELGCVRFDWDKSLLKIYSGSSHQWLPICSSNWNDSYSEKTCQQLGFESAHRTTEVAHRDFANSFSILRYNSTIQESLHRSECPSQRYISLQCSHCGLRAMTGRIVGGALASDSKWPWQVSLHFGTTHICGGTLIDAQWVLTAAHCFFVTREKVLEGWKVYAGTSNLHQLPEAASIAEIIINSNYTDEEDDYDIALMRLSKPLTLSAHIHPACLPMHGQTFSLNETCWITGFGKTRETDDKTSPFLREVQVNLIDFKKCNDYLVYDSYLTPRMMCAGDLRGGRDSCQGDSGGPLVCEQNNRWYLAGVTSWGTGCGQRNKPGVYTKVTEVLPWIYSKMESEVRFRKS

Molecule `O=C1c2c(O)c(=O)ccn2N([C@@H]2c3ccccc3SCc3c2ccc(F)c3F)[C@@H]2COCCN12` [Baloxavir acid] has an IC50 [1, 6] of 1.6 ± 1 nM and an IC50 [2, 7] of 10.3 ± 2 nM.

For `N=C(N)c1ccc2cc(OC(=O)c3ccc(N=C(N)N)cc3)ccc2c1` [Nafamostat mesylate], the half-life [3] is given as 8 min.

Work on `CN(C)C(=O)COC(=O)Cc1ccc(OC(=O)c2ccc(NC(=N)N)cc2)cc1` [Camostat mesylate] yielded an IC50 ([1]; Influenza A virus, Calu-3, 72 h, read-out: IC50, IAV H1N1 (Virg09)) of 220 nM, an IC50 ([1]; Influenza A virus, Calu-3, Table S1, read-out: anti-viral IC50 (±SEM), IAV H1N1) of 220 ± 49 nM and an IC50 ([4]; Influenza A virus, H3N2, Calu-3, 72 h, read-out: IC50, IAV H3N2 (Vict11)) of 50 nM. The IC50 ([4]; Influenza A virus, H3N2, Calu-3, Table S1, read-out: anti-viral IC50 (±SEM), IAV H3N2) was 50.2 ± 16 nM, the IC50 (Kallikrein 5) was 536 nM and the IC50 (TMPRSS14 (Matriptase)) was 23 nM. For the same molecule, the plasma half-life [3] was < 2 h, the IC50 (SARS-CoV-2 Omicron BA.1; Severe acute respiratory syndrome coronavirus 2, Caco-2, 24 h, read-out: IC50, SARS-CoV-2 Omicron BA.1) was 68 nM and the IC50 (SARS-CoV-2 Omicron BA.1; Severe acute respiratory syndrome coronavirus 2, Caco-2, read-out: anti-viral IC50 (±SEM), SARS-CoV-2 BA.1) was 68.1 ± 5 nM. It also gave an IC50 ([2]; Influenza B virus, Calu-3, 72 h, read-out: IC50, IBV (Ned05)) of 125 nM, an IC50 ([2]; Influenza B virus, Calu-3, Table S1, read-out: anti-viral IC50 (±SEM), IBV) of 125 ± 33 nM and an IC50 (TMPRSS11D) of 194 nM. It also gave an IC50 (hCoV-NL63; Human coronavirus NL63, Caco-2, 72 h, read-out: IC50, hCoV-NL63 replication) of 110 nM, an IC50 (hCoV-NL63; [8]) of 110 ± 24 nM and an IC50 (TMPRSS13) of 93 nM.

In the case of “CNLPIVRGPCRAFIQLWAFDAVKGKCVLFPYGGCQGNGNKFYSEKECREYC (disulfide 1-51, 10-34, 26-47) [Bikunin KD 2]”, the “effect on VSV-G-mediated pseudoparticle entry” value [5] is reported as “without affecting VSV‐G‐driven entry”.

Molecule `CC(C)(C)[C@H](NC(=O)C(F)(F)F)C(=O)N1C[C@H]2[C@@H]([C@H]1C(=O)N[C@H](C#N)C[C@@H]1CCNC1=O)C2(C)C` [Nirmatrelvir] has an IC50 (hCoV-NL63; [8]) of 1260 ± 64 nM.

In the case of Aprotinin, the IC50 [1, 6] is reported as 2250 ± 886 nM, the IC50 ([4]; Table S1, read-out: anti-viral IC50 (±SEM), IAV H3N2) is reported as 1460 ± 693 nM and the IC50 [2, 7] is reported as 2790 ± 871 nM.

B1: Bikunin (protein, UniProt P02760 206-352, looked up)
Inter-alpha-trypsin inhibitor …: AVLPQEEEGSGGGQLVTEVTKKEDSCQLGYSAGPCMGMTSRYFYNGTSMACETFQYGGCMGNGNNFVTEKECLQTCRTVAACNLPIVRGPCRAFIQLWAFDAVKGKCVLFPYGGCQGNGNKFYSEKECREYCGVPGDGDEELLRFSN
modifications: Inter-alpha-trypsin inhibitor light chain
For B1, the “effect on VSV-G-mediated pseudoparticle entry” value [5] was “non‐specific effects against VSV‐G‐mediated entry”.
